Assay results reported in paper PMC9772252 (Cell chemical biology, 2022).

Molecular target: T1, GPX4 (glutathione peroxidase 4) (Homo sapiens, UniProt P36969, U73C)
T1 sequence (P36969 33-197 U73C): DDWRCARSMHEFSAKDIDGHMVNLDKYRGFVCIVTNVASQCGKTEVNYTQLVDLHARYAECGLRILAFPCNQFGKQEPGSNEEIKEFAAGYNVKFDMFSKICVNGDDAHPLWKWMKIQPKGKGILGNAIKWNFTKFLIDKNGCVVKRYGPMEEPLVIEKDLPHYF
Test: SPR
Assay type: binding

Kd: 60 µM
Structure (SMILES): COC(=O)c1ccc([C@H]2c3[nH]c4ccccc4c3C[C@H](C(=O)OC)N2C(C)=O)cc1 [RSL3-minus-Cl, Methyl (1S,3R)-2-acetyl-1-(4-(methoxycarbonyl)phenyl)-2,3,4,9-tetrahydro-1H-pyrido[3,4-b] indole-3-carboxylate]
